# Results taken from patent publication US20230102520A1, “INHIBITORS OF LOW MOLECULAR WEIGHT PROTEIN TYROSINE PHOSPHATASE (LMPTP) AND USES THEREOF” (Sanford Burnham Prebys Medical Discovery Institute, priority 2019, published 2023).
# Target: T1, human LMPTP-A (Homo sapiens, UniProt P24666)
# T1 sequence (P24666 1-158): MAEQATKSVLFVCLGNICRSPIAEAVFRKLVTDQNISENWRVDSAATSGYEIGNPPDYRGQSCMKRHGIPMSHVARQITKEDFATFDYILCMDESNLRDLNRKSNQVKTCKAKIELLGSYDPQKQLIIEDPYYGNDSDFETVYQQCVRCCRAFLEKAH
# Experiment: Enzyme Assay of Inhibition of LMPTP-A
# Assay type: biochemical
# Settings: phosphatase assay, OMFP or pNPP substrate, 50 mM Bis-Tris pH 6.0, 37° C.
# Experimental: Example B-1: Enzyme Assay of Inhibition of LMPTP-A
# Phosphatase assays were performed in buffer containing 50 mM Bis-Tris, pH 6.0, 1 mM DTT and 0.01% Triton X-100 at 37° C. For assays conducted with 3-O-methylfluorescein phosphate (OMFP) as substrate, fluorescence was monitored continuously at λex=485 and λem=525 nm. For assays conducted with para-nitrophenylphosphate (pNPP) as substrate, the reaction was stopped by addition of 2× reaction volume of 1 M NaOH, and absorbance was measured at 405 nm. IC50 values of compounds disclosed herein were determined from plots of inhibitor concentration versus percentage of enzyme activity. For inhibitor selectivity assays, each PTP was incubated with either 0.4 mM OMFP or 5 mM pNPP in the presence of 40 μM compound or DMSO. […] For the inhibitor reversibility assay, 50 nM human LMPTP-A was pre-incubated with 10 μM of compound disclosed herein or DMSO for 5 min. The enzyme was diluted 100× in phosphatase assay buffer containing 0.4 mM OMFP and fluorescence was measured at the indicated time points.
row,IC50 [nM],SMILES
1,< 1000,"Nc1ncn(Cc2c(Cl)cncc2Cl)c2nc(-c3ccc4occc4c3)nc1-2 [8-benzo[b]furan-5-yl-3-[(3,5-dichloro(4-pyridyl))methyl]-3-hydropurine-6-ylamine]"
2,< 1000,"Nc1ncn(Cc2c(Cl)cncc2Cl)c2nc(-c3ccc4sccc4c3)nc1-2 [8-benzo[b]thiophen-5-yl-3-[(3,5-dichloro(4-pyridyl))methyl]-3-hydropurine-6-ylamine]"
3,< 1000,"Nc1ncn(Cc2c(Cl)ccnc2Cl)c2nc(-c3ccc4ncsc4c3)nc1-2 [8-benzothiazol-6-yl-3-[(2,4-dichloro(3-pyridyl))methyl]-3-hydropurine-6-ylamine]"
4,1000 to 20000,"CCN(CC)Cc1nc2c(N)ncn(Cc3c(Cl)cncc3Cl)c-2n1 [({6-amino-3-[(3,5-dichloro(4-pyridyl))methyl](3-hydropurin-8-yl)}methyl)diethylamine]"
